In patent US11578079B2, “SUMO inhibitor compounds and uses thereof” (CITY OF HOPE, priority 2018, dated 2023):

Columns and labels:
SUMO = molecular target: T1, SUMO (Homo sapiens, UniProt Q9UBT2); test: SUMO activity (Table I, biological activities); assay type: biochemical; design: key: + (less active); ++ (active); +++ (most active)
T1 sequence (Q9UBT2 1-640): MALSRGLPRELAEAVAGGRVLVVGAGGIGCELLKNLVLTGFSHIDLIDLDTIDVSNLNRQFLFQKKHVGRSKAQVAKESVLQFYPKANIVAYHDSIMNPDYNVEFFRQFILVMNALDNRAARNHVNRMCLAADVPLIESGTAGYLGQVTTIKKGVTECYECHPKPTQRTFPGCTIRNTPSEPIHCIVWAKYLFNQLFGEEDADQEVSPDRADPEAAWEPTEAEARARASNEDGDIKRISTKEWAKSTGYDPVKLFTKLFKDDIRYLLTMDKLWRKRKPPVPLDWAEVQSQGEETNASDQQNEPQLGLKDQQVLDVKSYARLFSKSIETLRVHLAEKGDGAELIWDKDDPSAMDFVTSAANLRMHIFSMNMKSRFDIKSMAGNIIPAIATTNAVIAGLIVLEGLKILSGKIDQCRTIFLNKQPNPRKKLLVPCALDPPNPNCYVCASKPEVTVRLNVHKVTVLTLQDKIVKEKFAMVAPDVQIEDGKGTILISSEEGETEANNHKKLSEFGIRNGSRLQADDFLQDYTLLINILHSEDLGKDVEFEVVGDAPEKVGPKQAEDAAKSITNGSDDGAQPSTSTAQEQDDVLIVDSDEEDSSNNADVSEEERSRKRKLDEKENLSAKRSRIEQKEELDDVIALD
T1 sequence (Q9UBE0 1-346 partner): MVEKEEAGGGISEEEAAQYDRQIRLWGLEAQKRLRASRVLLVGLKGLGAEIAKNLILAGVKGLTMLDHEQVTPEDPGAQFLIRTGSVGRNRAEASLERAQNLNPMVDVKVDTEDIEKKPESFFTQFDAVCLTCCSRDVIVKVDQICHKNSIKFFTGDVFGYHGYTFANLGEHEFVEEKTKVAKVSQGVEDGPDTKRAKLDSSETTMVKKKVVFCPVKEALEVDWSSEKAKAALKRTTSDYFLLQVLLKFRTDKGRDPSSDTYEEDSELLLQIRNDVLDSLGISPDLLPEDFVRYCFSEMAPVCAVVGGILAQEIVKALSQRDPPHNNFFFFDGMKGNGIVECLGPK

Atg7 = molecular target: T2, Atg7 (Homo sapiens, UniProt O95352); test: Atg7 activity (Table I, biological activities); assay type: biochemical; design: key: + (less active); ++ (active); +++ (most active)
T2 sequence (O95352 1-703): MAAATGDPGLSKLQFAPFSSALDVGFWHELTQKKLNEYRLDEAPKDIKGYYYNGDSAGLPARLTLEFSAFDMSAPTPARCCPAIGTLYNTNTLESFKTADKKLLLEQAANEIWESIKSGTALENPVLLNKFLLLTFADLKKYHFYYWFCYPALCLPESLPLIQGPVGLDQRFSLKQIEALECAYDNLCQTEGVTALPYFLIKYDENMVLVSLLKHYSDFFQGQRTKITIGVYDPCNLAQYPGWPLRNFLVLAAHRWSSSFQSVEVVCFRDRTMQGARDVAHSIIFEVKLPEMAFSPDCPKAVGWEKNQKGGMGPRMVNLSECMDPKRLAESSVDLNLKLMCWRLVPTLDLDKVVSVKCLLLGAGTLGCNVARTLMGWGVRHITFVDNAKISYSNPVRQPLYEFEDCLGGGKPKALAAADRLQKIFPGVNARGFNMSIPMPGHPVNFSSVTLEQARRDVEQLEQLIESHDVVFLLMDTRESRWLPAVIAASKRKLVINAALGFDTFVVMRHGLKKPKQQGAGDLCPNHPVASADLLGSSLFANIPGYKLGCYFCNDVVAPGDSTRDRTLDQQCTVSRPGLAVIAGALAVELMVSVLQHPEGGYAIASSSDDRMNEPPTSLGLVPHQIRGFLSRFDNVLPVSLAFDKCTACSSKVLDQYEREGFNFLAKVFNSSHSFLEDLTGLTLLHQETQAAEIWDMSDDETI

c-Myc = c-Myc activity (Table I, biological activities); design: key: + (less active); ++ (active); +++ (most active)
Ubiquitin = molecular target: T3, Ubiquitin (Homo sapiens, UniProt P22314); test: Ubiquitin activity (Table I, biological activities); assay type: biochemical; design: key: + (less active); ++ (active); +++ (most active)
T3 sequence (P22314 1-1058): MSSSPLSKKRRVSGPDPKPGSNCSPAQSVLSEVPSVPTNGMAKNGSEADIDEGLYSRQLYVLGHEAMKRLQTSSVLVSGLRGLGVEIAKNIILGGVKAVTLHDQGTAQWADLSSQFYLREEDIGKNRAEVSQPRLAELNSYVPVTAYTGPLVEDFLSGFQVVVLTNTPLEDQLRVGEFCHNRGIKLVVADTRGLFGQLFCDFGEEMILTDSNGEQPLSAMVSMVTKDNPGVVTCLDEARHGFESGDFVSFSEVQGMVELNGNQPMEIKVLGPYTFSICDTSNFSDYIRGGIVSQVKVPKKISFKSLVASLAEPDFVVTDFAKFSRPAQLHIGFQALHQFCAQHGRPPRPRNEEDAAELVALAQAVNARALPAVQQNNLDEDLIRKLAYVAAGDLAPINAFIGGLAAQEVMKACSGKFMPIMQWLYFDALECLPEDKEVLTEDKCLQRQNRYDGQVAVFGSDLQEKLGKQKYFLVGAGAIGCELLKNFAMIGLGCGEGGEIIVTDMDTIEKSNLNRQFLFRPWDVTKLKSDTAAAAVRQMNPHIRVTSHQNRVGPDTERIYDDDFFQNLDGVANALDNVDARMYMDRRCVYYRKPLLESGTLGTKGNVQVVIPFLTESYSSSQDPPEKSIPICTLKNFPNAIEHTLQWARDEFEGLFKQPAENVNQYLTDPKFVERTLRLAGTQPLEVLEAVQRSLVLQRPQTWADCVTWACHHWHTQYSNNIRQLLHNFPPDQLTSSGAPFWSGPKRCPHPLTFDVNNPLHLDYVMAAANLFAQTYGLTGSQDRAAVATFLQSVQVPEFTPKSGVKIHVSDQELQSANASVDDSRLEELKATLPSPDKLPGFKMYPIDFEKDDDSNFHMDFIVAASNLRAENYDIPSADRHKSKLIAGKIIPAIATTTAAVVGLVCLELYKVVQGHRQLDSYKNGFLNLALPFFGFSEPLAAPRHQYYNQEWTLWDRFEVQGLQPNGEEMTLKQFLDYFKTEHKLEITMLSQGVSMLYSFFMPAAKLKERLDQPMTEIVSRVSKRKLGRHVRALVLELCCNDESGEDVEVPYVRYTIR

Nedd8 = molecular target: T4, Nedd8 (Homo sapiens, UniProt Q8TBC4); test: Nedd8 activity (Table I, biological activities); assay type: biochemical; design: key: + (less active); ++ (active); +++ (most active)
T4 sequence (Q8TBC4 1-463): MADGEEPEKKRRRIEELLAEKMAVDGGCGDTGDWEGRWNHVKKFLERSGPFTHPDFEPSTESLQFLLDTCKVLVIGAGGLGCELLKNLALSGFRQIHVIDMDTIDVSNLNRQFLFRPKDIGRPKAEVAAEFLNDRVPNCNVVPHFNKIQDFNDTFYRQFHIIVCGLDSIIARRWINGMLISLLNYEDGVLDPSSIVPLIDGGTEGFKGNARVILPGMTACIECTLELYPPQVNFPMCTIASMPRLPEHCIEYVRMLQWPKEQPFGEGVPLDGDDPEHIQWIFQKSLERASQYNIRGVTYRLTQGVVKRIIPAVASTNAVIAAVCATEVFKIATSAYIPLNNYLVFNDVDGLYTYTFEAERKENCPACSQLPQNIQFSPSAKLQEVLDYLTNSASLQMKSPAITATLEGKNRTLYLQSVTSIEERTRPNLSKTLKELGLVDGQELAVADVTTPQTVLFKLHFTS
T4 sequence (Q13564 1-534 partner): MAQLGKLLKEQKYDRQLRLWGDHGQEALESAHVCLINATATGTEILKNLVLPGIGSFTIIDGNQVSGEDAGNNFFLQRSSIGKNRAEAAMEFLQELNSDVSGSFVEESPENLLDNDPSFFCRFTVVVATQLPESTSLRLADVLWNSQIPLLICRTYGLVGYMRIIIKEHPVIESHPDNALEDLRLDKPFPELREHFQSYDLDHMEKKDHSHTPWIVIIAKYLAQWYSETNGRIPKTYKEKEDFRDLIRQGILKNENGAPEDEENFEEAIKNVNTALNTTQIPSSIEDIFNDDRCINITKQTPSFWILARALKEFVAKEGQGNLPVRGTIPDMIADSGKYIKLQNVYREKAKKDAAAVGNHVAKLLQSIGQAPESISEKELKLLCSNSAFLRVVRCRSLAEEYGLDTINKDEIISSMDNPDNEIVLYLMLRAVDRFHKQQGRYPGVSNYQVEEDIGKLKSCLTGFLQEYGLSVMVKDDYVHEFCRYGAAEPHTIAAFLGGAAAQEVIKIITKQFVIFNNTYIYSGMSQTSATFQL

[1] = system: cancer stem cell (CSC) populations in patient derived xenograft (PDX) models; test: Limited dilution assays of cancer stem cell populations in PDX models (FIG. 1); assay type: cell-based; details: 1 μM to 10 μM
Text: FIG. 1. Examination of the effect of compounds 582 and 588 to reduce cancer stem cell (CSC) populations in patient derived xenograft (PDX) models using limited dilution assays.

## COC(=O)C1=C(C(=O)NCCN2CCCCC2)C2C=CC1(C(Cc1ccccc1)Nc1ccccc1)O2 (stereo not shown) [Compound 462]
SUMO
  SUMO: ++
Atg7
  Atg7: ++
c-Myc
  c-Myc: ++

## COC(=O)C1=C(C(=O)NCCN2CCN(C)CC2)C2C=CC1(C(Cc1ccccc1)Nc1ccccc1)O2 (stereo not shown) [Compound 463]
SUMO
  SUMO: ++
Atg7
  Atg7: ++
c-Myc
  c-Myc: ++

## COC(=O)C1=C(C(=O)Nc2ccc(OCCN(C)C)cc2)C2OC1(C(Cc1ccccc1)Oc1ccccc1)C1OC21 (stereo not shown) [Compound 534]
SUMO
  SUMO: +
Ubiquitin
  Ubiquitin: +
Nedd8
  Nedd8: ++
c-Myc
  c-Myc: ++

## COC(=O)C1=C(C(=O)NCCN(C)C)C2C=CC1(C(Cc1ccccc1)Nc1cccc(CO)c1)O2 (stereo not shown) [Compound 535]
SUMO
  SUMO: +++
Ubiquitin
  Ubiquitin: +
Nedd8
  Nedd8: ++
c-Myc
  c-Myc: ++

## COC(=O)C1=C(C(N)=O)C2C=CC1(C(Cc1ccccc1)Nc1cccc(CO)c1)O2 (stereo not shown) [Compound 536]
SUMO
  SUMO: ++
Ubiquitin
  Ubiquitin: +
Nedd8
  Nedd8: ++

## COC(=O)C1=C(C(=O)Nc2ccc(OC)cc2)C2C=CC1(C(Cc1ccccc1)Nc1cccc(CO)c1)O2 (stereo not shown) [Compound 537]
SUMO
  SUMO: ++
Nedd8
  Nedd8: ++
c-Myc
  c-Myc: +

## COC(=O)C1=C(C(N)=O)C2C=CC1(C(Cc1ccccc1)Nc1ccc(F)cc1)O2 (stereo not shown) [Compound 540]
SUMO
  SUMO: ++
Nedd8
  Nedd8: ++
c-Myc
  c-Myc: ++

## COC(=O)C1=C(C(=O)NC2CCN(C)CC2)C2OC1(C(Cc1ccccc1)Oc1ccccc1)C1OC21 (stereo not shown) [Compound 541]
SUMO
  SUMO: ++
Nedd8
  Nedd8: ++
c-Myc
  c-Myc: ++

## COC(=O)C1=C(C(=O)Nc2ccc(CN(C)C)cc2)C2OC1(C(Cc1ccccc1)Oc1ccccc1)C1OC21 (stereo not shown) [Compound 545]
SUMO
  SUMO: ++
Ubiquitin
  Ubiquitin: +
c-Myc
  c-Myc: ++

## CCOC(=O)C1=C(C(=O)Nc2c(C)cccc2C)C2C=CC1(C(Nc1ccccc1)c1ccc(CN3CCOCC3)cc1)O2 (stereo not shown) [Compound 582]
SUMO
  SUMO: ++
[1]
  inhibition on PDX cancer-initiating-cell (CIC) frequency: dose-dependent inhibition on PDX cancer-initiating-cell (CIC) frequency, even at 1 μM
c-Myc
  c-Myc: ++

## COC(=O)C1=C(CO)C2C=CC1(C(Cc1ccccc1)Oc1ccccc1)O2 (stereo not shown) [Compound 584]
SUMO
  SUMO: +
Atg7
  Atg7: ++
c-Myc
  c-Myc: ++

## CCOC(=O)C1=CC2OC1(C(c1ccccc1)N(C(=O)C(F)(F)F)c1ccccc1)c1ccccc12 (stereo not shown) [Compound 585]
SUMO
  SUMO: +
Atg7
  Atg7: +
c-Myc
  c-Myc: ++

## CCOC(=O)C1=C(C(=O)Nc2c(CC)cccc2CC)C2C=CC1(C(Nc1ccccc1)c1ccc(CN3CCOCC3)cc1)O2 (stereo not shown) [Compound 588]
SUMO
  SUMO: ++
[1]
  inhibition on PDX cancer-initiating-cell (CIC) frequency: only showed inhibition on CIC at high dose 10 μM
c-Myc
  c-Myc: ++

## COC(=O)C1=C(C(=O)NCCN(C)C)C2(C)C=CC1(C(Cc1ccccc1)Nc1ccccc1)O2 (stereo not shown) [Compound 619]
SUMO
  SUMO: ++
Atg7
  Atg7: +
c-Myc
  c-Myc: +

## COC(=O)C1=C(CO)C2(C)C=CC1(C(Cc1ccccc1)Oc1ccccc1)O2 (stereo not shown) [Compound 626]
SUMO
  SUMO: +
Atg7
  Atg7: ++
